In patent US7105553B2, “Thiazolyl amide derivatives” (Bayer Aktiengesellschaft, priority 1999, dated 2006):
pIC50: −log10 of the molar value. Like-named read-outs stand apart in the source and are kept apart here.

Legend:
HSV-1 F = test: anti-HSV screening test (cytopathogenic effect, fluorescein diacetate read-out), HSV-1 F on Vero cells; assay type: cell-based; conditions: read-out: IC50 HSV-1 F/Vero
Experimental: (§1) HSV (HSV-1 Walki, HSV-1F or HSV-2G) was cultivated on Vero cells (ATCC CCL-81) under the following conditions: The cells were grown in M199 medium (5% foetal calf serum, 2 mM glutamine, 100 IU/ml penicillin, 100 μg/ml streptomycin) in cell culture bottles at 37° C. and 5% CO2. The cells were splitted twice per week, in each case 1:4. For the infection, the medium was removed, the cells were washed with Hank's solution, detached using 0.05% trypsin, 0.02% EDTA (Seromed L2143) and incubated at a density of 4×10^5 cells per ml under the abovementioned conditions for 24 hours. The medium was then removed and the virus solution was added at an m.o.i of <0.05 in a volume of 2 ml per 175 cm^2 of surface. The medium was incubated under the conditions mentioned for one hour and then made up to a volume of 50 ml per 175 cm^2 bottle. […] The virus was released by freezing (−80° C.) and thawing (37° C.) the cultures twice. Cell debris was removed by centrifugation (300 g, 10 min, 4° C.) and the supernatant was frozen down in aliquots at −80° C.
(§2) The anti-HSV action was determined in a screening test system in 96-well microtitre plates using various cell lines of neuronal, lymphoid and epithelial origin, such as, for example, Vero (kidney cell line of the green monkey), MEF (murine embryonal fibroblasts), HELF (humane embryonal fibroblasts), NT2 (humane neuronal cell line) or Jurkat (humane lymphoid T-cell line).
(§3) The substances (50 mM), dissolved in DMSO (dimethyl sulphoxide), are examined on microtitre plates (for example 96-well MTP) in final concentrations of 250-0.5 μM (micromolar) in two replications (4 substances/plate). In the case of potent substances, the dilutions are continued for several plates up to 0.5 pM (picomolar). Also examined are toxic and cytostatic effects of the substances. After an appropriate dilution of the substances (1:2) on the microtitre plate in medium, a suspension of cells (1×10^4 cells per well) such as, for example, of Vero cells in M199 (medium 199) with 5% foetal calf serum, 2 mM glutamine and optionally 100 IU/ml penicillin and 100 μg/ml streptomycin or of MEF cells in EMEM (Eagle's Minimum Essential Medium) with 10% foetal calf serum, 2 mM glutamine and optionally 100 IU/ml penicillin and 100 μg/ml streptomycin, or of HELF cells in EMEM with 10% foetal calf serum, 2 mM glutamine and optionally 100 IU/ml penicillin and 100 μg/ml streptomycin, or of NT2- and Jurkat cells in DMEM ([…] glucose plus pyridoxin) with 10% foetal calf serum, 2 mM glutamine, 1 mM sodium pyruvate, non-essential amino acids and optionally 100 IU/ml penicillin and 100 μg/ml streptomycin is added to each well and the cells in the relevant wells are infected with an appropriate amount of virus (HSV-1 F or HSV-2 G having an m.o.i (multiplicity of infection) of 0.0025 for HELF, Vero and MEF cells and an m.o.i of 0.1 for NT2 and Jurkat cells). The plates are then incubated at 37° C. in a CO2 incubator (5% CO2) for several days. […] The plates are initially evaluated visually using a microscope and then analysed using a fluorescent dye. To this end, the cell supernatant of all wells of the MTP is aspirated and the wells are filled with 200 μl of PBS wash solution. The PBS is then aspirated and all the wells are filled with 200 μl of fluorescent dye solution (fluorescein diacetate, 10 μg/ml in PBS). After an incubation time of 30-90 min, the test plates are read in a fluorescence detector at an excitation wavelength of 485 nm and an emission wavelength of 538 nm.

HSV-2 G = test: anti-HSV screening test (cytopathogenic effect, fluorescein diacetate read-out), HSV-2 G on Vero cells; assay type: cell-based; conditions: read-out: IC50 HSV-2 G/Vero
Experimental: as §1, §2, §3

HSV-2 = test: in-vivo action: survival of intranasally HSV-infected mice; design: species or system mice (BALB/cABom); conditions: Human alphaherpesvirus 2; HSV-2, intranasal infection 5×10^4 Pfu, treatment 3 times per day for 5 days from 6 hours after infection; read-out: ED50 (50% of the animals survive at this dose)
Experimental: 6 week-old female mice, BALB/cABom strain were obtained from a commercial breeder (Bomholtgard Breeding and Research Centre Ltd.).
The animals were anaesthetized with diethyl ether (Merck) in a sealed glass vessel. 50 μl of a dilution of the virus stock (infection dose 5×10^4 Pfu) were introduced into the nose of the anaesthetized animals using an Eppendorf pipette. In 90-100% of the animals, this infection dose causes death by a generalized infection with prominent respiratory and central-nervous symptoms on average after 5 to 8 days.
6 hours after the infection, the animals were treated with doses of 0.1-100 mg/kg of body mass, 3 times per day, at 7 a.m., 2 p.m. and 7 p.m., for a period of 5 days. The substances were pre-dissolved in DMSO and resuspended in tylose/PBS (Hoechst) (final concentration 1.5% DMSO, 0.5% tylose in PBS).
After the last administration, the animals were monitored further and the time of death was determined.

[1] = Human alphaherpesvirus 1, Vero cells infected with HSV-1 F, m.o.i. 0.0025, half-maximal fluorescence intensity vs non-infected cell control
[2] = Human alphaherpesvirus 2, Vero cells infected with HSV-2 G, m.o.i. 0.0025, half-maximal fluorescence intensity vs non-infected cell control

SMILES	melting point [°C]	other results
Cc1nc(N(C)C(=O)Cc2ccc(-c3cccc(N)c3)cc2)sc1S(N)(=O)=O	209	–
Cc1nc(N(C)C(=O)Cc2ccc(-c3ccccc3)cc2)sc1S(=O)(=O)NCCO	167	–
Cc1nc(N(C)C(=O)Cc2ccc(-c3cccc([N+](=O)[O-])c3)cc2)sc1S(=O)(=O)N(C)C	81	–
Cc1nc(N(C)C(=O)Cc2ccc(-c3ccccc3)cc2)sc1S(=O)(=O)N(C)C	184	–
Cc1nc(N(C)C(=O)Cc2ccc(-c3ccccc3C(F)(F)F)cc2)sc1S(=O)(=O)NCCNC(=O)OC(C)(C)C	156	–
COCCCN(C(=O)Cc1ccc(-c2ccccc2)cc1)c1nc(C)c(S(N)(=O)=O)s1	148	–
CCOc1ccc(CC(=O)N(C)c2nc(C)c(S(=O)(=O)NC)s2)cc1	157	–
COc1ccc(F)cc1-c1ccc(CC(=O)N(CC2CCCO2)c2nc(C)c(S(N)(=O)=O)s2)cc1 (stereo not drawn)	79	–
Cc1nc(N(C)C(=O)Cc2ccc(-c3ccccc3)cc2F)sc1S(N)(=O)=O	130	–
Cc1nc(N(C)C(=O)Cc2ccc(-c3ccccn3)cc2)sc1S(=O)(=O)NCCO[Si](C)(C)C(C)(C)C	130	–
Cc1nc(N(C)C(=O)Cc2ccc(-c3ccccn3)cc2)sc1S(=O)(=O)NCCO	175	–
CCOCCNS(=O)(=O)c1sc(N(C)C(=O)Cc2ccc(-c3ccccc3)cc2)nc1C	105 to 106	–
CNS(=O)(=O)c1sc(N(C)C(=O)Cc2ccc(-c3cccc(C=O)c3)cc2)nc1C	192	–
CNS(=O)(=O)c1sc(N(C)C(=O)Cc2ccc(-c3cccnc3)cc2)nc1C	200	–
CCOCCOCCOCCN(C(=O)Cc1ccc(-c2ccccc2)cc1)c1nc(C)c(S(N)(=O)=O)s1	94	–
CNS(=O)(=O)c1sc(N(CCNC(=O)OC(C)(C)C)C(=O)Cc2ccc(-c3ccccc3)cc2)nc1C	188	–
CNS(=O)(=O)c1sc(N(C)C(=O)Cc2ccc(-c3ncccc3N)cc2)nc1C.Cl	160	–
Cc1nc(N(C)C(=O)Cc2ccc(-c3cccc(N4CCCC4)c3)cc2)sc1S(N)(=O)=O	152	–
CCOc1ccc(CC(=O)N(CCOC)c2nc(C)c(S(N)(=O)=O)s2)cc1	165	–
CCOc1ccc(CC(=O)N(C)c2nc(C)c(S(N)(=O)=O)s2)cc1	168	–
Cc1nc(N(C)C(=O)Cc2ccc(-c3cncc(C#N)c3)cc2)sc1S(N)(=O)=O	231	–
Cc1nc(N(C)C(=O)Cc2ccc(-c3ccccc3)cc2)sc1S(=O)(=O)NCCNC(=O)OC(C)(C)C	150	–
CNS(=O)(=O)c1sc(N(C)C(=O)Cc2ccc(-c3ccc(OC(F)(F)F)cc3)cc2)nc1C	109	–
Cc1nc(N(Cc2ccccc2)C(=O)Cc2ccc(-c3ccccc3)cc2)sc1S(N)(=O)=O	154	–
CNS(=O)(=O)c1sc(N(C)C(=O)Cc2ccc(-c3cc(F)ccc3C)cc2)nc1C [Example 8]	186	pIC50 (HSV-1 F; [1]): 7.00; pIC50 (HSV-2 G; [2]): 7.00
CCOc1ccc(CC(=O)N(C)c2nc(C)c(S(=O)(=O)N(C)C)s2)cc1 [Example 14]	154	pIC50 (HSV-1 F; [1]): 7.00; pIC50 (HSV-2 G; [2]): 6.12
Cc1nc(N(C)C(=O)Cc2ccc(-c3ccccn3)cc2)sc1S(N)(=O)=O [Example 38, N-[5-(Aminosulphonyl)-4-methyl-1,3-thiazol-2-yl]-N-methyl-2-[4-(2-pyridinyl)phenyl]acetamide]	–	pIC50 (HSV-1 F; [1]): 7.30; pIC50 (HSV-2 G; [2]): 7.80
Cc1nc(N(C)C(=O)Cc2ccc(-c3ccccc3F)cc2)sc1S(N)(=O)=O [Example 57, N-[5-(Aminosulphonyl)-4-methyl-1,3-thiazol-2-yl]-2-(2′-fluoro[1,1′-biphenyl]-4-yl)-N-methylacetamide]	–	pIC50 (HSV-1 F; Human alphaherpesvirus 1, Vero): > 8.00; pIC50 (HSV-2 G; Human alphaherpesvirus 2, Vero): > 8.00; ED50 (HSV-2): ~0.7 mg/kg
Cc1nc(N(C)C(=O)Cc2ccc(-c3cc(F)ccc3F)cc2)sc1S(N)(=O)=O [Example 87, N-[5-(aminosulphonyl)-4-methyl-1,3-thiazol-2-yl]-2-(2′,5′-difluoro-1,1′-biphenyl-4-yl)-N-methylacetamide]	–	pIC50 (HSV-1 F; [1]): > 8.00; pIC50 (HSV-2 G; [2]): > 8.00
Cc1nc(N(C)C(=O)Cc2ccc(-n3cccn3)cc2)sc1S(N)(=O)=O [Example 126, N-[5-(Aminosulphonyl)-4-methyl-1,3-thiazol-2-yl]-N-methyl-2-[4-(1H-pyrazol-1-yl)phenyl]acetamide]	–	pIC50 (HSV-1 F; [1]): 8.00; pIC50 (HSV-2 G; [2]): 7.00

Further lines, with some results ahead:

melting point [°C]	SMILES	other results
128	CNS(=O)(=O)c1sc(N(C)C(=O)Cc2ccc(-c3ccccc3Cl)cc2)nc1C	–
221	Cc1nc(N(C)C(=O)Cc2ccc(-c3ncccc3C(F)(F)F)cc2)sc1S(N)(=O)=O	–
218	Cc1nc(N(C)C(=O)Cc2ccc(-c3ncccc3F)cc2)sc1S(N)(=O)=O	–
223	Cc1nc(N(C)C(=O)Cc2ccc(-c3ccncc3F)cc2)sc1S(N)(=O)=O	–
129	CONS(=O)(=O)c1sc(N(C)C(=O)Cc2ccc(-c3ccccc3)cc2)nc1C	–
170	CNS(=O)(=O)c1sc(N(C)C(=O)Cc2ccc(-c3cc(C)cc(C)c3)cc2)nc1C	–
193	CNS(=O)(=O)c1sc(N(C)C(=O)Cc2ccc(-c3cccc(N)c3)cc2)nc1C	–
201	CNS(=O)(=O)c1sc(N(C)C(=O)Cc2ccc(-c3cccc([N+](=O)[O-])c3)cc2)nc1C	–
156	CNS(=O)(=O)c1sc(N(C)C(=O)Cc2ccc(-c3cccc(OC(F)(F)F)c3)cc2)nc1C	–
208	Cc1nc(N(C)C(=O)Cc2ccc(-c3cccnc3)cc2)sc1S(N)(=O)=O	–
270	CNS(=O)(=O)c1sc(N(C)C(=O)Cc2ccc(-c3cccnc3)cc2)nc1C.Cl	–
152	CCN(C(=O)Cc1ccc(-c2ccccc2)cc1)c1nc(C)c(S(=O)(=O)NCC(F)(F)F)s1	–
202	Cc1nc(N(C)C(=O)Cc2ccc(-c3cccc([N+](=O)[O-])c3)cc2)sc1S(N)(=O)=O	–
180	CNS(=O)(=O)c1sc(N(C)C(=O)Cc2ccc(-c3ncccc3C(F)(F)F)cc2)nc1C	–
159	Cc1nc(N(CC2CCCO2)C(=O)Cc2ccc(-c3ccccc3)cc2)sc1S(N)(=O)=O (stereo not drawn)	–
156	CNS(=O)(=O)c1sc(N(CCN2CCCC2=O)C(=O)Cc2ccc(-c3ccccc3)cc2)nc1C [Example 23]	pIC50 (HSV-1 F; [1]): 7.52; pIC50 (HSV-2 G; [2]): 7.00
